Assay results taken from PubChem BioAssay AID651650 (Sanford-Burnham Center for Chemical Genomics, 2012).
Activity calls are given as the source filed them.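 Rule for the calls: active = mean IC50 below 20 µM in each of the two panels, so potent in both; inactive = the rest.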

Target: Neuropilin-1 (Homo sapiens) (UniProt O14786)
Assay: NRP-1 b1b2 CendR peptide binding inhibitors, dose response, biochemical, FP and AlphaScreen panel (AID 651650)
Settings: NRP-1 b1b2 / RPARPAR peptide binding, FP or AlphaScreen
[1] = AlphaScreen, run 1, individual panel run IC50
[2] = FP, run 1, individual panel run IC50
[3] = FP, run 2, individual panel run IC50

Chain of Neuropilin-1 (Homo sapiens) (O14786 whole entry, looked up): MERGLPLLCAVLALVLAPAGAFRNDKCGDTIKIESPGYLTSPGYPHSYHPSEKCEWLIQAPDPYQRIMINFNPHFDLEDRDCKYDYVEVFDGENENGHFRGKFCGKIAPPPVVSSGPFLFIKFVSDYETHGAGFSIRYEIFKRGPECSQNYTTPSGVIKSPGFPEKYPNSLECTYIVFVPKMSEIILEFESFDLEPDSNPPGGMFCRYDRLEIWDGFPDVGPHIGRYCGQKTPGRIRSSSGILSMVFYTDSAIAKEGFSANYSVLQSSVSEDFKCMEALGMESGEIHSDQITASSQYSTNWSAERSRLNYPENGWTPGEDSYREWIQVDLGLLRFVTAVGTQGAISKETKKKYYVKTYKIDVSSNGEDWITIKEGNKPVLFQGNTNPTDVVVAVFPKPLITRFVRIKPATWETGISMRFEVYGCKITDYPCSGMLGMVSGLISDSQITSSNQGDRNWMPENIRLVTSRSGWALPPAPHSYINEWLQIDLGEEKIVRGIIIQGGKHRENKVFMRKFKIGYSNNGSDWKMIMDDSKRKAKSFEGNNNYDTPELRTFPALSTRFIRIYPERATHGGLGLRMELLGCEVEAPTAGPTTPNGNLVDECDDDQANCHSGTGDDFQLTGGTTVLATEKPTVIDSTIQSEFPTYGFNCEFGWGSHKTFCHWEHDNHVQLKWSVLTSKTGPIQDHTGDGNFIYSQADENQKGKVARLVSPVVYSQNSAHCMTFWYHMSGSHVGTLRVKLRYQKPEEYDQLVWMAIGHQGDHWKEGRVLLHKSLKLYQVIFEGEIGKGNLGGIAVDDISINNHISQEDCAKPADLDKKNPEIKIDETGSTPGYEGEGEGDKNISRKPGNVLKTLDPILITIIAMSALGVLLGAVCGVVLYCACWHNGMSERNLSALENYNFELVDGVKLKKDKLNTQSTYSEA

SMILES	IC50 (AlphaScreen, mean of runs)	IC50 [1] [µM]	IC50 (FP, mean of runs)	IC50 [2] [µM]	IC50 [3] [µM]
O=C(Cn1ccc(NC(=O)OCc2ccccc2)nc1=O)NCCCn1ccnc1	> 100 µM (inactive)	> 100	> 95 µM (inactive)	> 95	> 95
CC1CCN(C(=O)c2[nH]cnc2C(=O)NCc2ccc(CNC(=O)OC(C)(C)C)cc2)CC1	12.9 µM	12.9	> 95 µM (inactive)	> 95	> 95
C#CCCOC(=O)N1C2=NC(C(=O)OC)=C(C(=O)OC)[C@@H]3N(C)c4ccccc4[C@]23C[C@H]1CO	9.53 µM	9.53	> 95 µM (inactive)	> 95	> 95
O=S(=O)(c1cc(Cl)cc(Cl)c1)N1Cc2cc(-c3ccccc3)ccc2-n2nncc2C1	> 100 µM (inactive)	> 100	> 95 µM (inactive)	> 95	> 95
Cc1ccc(NC=C(S(=O)(=O)c2ccccc2)S(=O)(=O)c2ccccc2)cc1	> 100 µM (inactive)	> 100	> 95 µM (inactive)	> 95	> 95
CC(C)(C)n1nc(-c2ccc(F)cc2)c2c(N)ncnc21	> 100 µM (inactive)	> 100	> 95 µM (inactive)	> 95	> 95
CCOc1ccc(N2C(=O)CC(N3CCN(c4ccc(Cl)cc4)CC3)C2=O)cc1 (stereo not given)	inactive	22.2	> 95 µM (inactive)	> 95	> 95
O=C(NNC(=O)C1CCN(c2ncccn2)CC1)c1ccc(F)cc1	> 100 µM (inactive)	> 100	> 95 µM (inactive)	> 95	> 95
CC(=O)Nc1cccc(-c2csc(NCc3ccccc3)n2)c1	> 100 µM (inactive)	> 100	> 95 µM (inactive)	> 95	> 95
Oc1ccccc1-c1ccn[nH]1	> 100 µM (inactive)	> 100	> 95 µM (inactive)	> 95	> 95
CCCc1c(C)nc(N2CCN(c3ccccc3OC)CC2)[nH]c1=O	> 100 µM (inactive)	> 100	> 95 µM (inactive)	> 95	> 95
CCc1cc(C(=O)OC)c(NC(=O)c2ccoc2C)s1	> 100 µM (inactive)	> 100	> 95 µM (inactive)	> 95	> 95
O=C(CSc1nc2ccccc2c(=O)n1-c1ccc(F)cc1F)Nc1ccc2c(c1)CCC2	> 100 µM (inactive)	> 100	> 95 µM (inactive)	> 95	> 95
Nc1ccc(C#Cc2c(-c3ccsc3)oc3ccc(N4CCOCC4)cc23)cc1	> 100 µM (inactive)	> 100	> 95 µM (inactive)	> 95	> 95
NC(=O)C(c1ccc(Cl)cc1Cl)c1ncc(C(F)(F)F)cc1Cl (stereo not given)	> 100 µM (inactive)	> 100	> 95 µM (inactive)	> 95	> 95
O=C(COc1ccc(Br)cc1CO)Nc1ccc(F)cc1	> 100 µM (inactive)	> 100	> 95 µM (inactive)	> 95	> 95
CCOC(=O)[C@@H]1[C@H]2COc3ccccc3[C@@H]2N2C(=O)N(c3ccc(Cl)cc3)C(=O)[C@]12C	7.51 µM	7.51	> 95 µM (inactive)	> 95	> 95
O=C(c1ccccn1)N1CCN(S(=O)(=O)c2ccccc2)CC1	inactive	27.8	> 95 µM (inactive)	> 95	> 95
C[C@@H]1CC=C[C@H]2[C@H]1C(=O)N(Cc1ccccc1)[C@H]2c1ccc(/C=C/c2ccccc2)cc1F	> 100 µM (inactive)	> 100	> 95 µM (inactive)	> 95	> 95
O=C(c1ccc(-c2cccc(C(F)(F)F)c2)o1)N1CCCC(C(F)(F)F)C1 (stereo not given)	> 100 µM (inactive)	> 100	> 95 µM (inactive)	> 95	> 95
COC(=O)c1ccn(C(=O)c2ccc(Cl)cc2)n1	> 100 µM (inactive)	> 100	> 95 µM (inactive)	> 95	> 95
N#CC(C#N)=Cc1cc2ccccc2nc1N1CCCCC1	> 100 µM (inactive)	> 100	> 95 µM (inactive)	> 95	> 95

SMILES	IC50 (AlphaScreen, mean of runs)	IC50 [1] [µM]	IC50 (FP, mean of runs)	IC50 [2] [µM]	IC50 [3] [µM]
O=C(Nc1ccccc1N1CCOCC1)c1ccc(N2CCCC2=O)cc1	> 100 µM (inactive)	> 100	> 95 µM (inactive)	> 95	> 95
CCc1ccc(NS(=O)(=O)c2c(C(=O)N3CCCCCC3)c(C)n(C)c2C)cc1	> 100 µM (inactive)	> 100	> 95 µM (inactive)	> 95	> 95
CCOc1ccc(S(=O)(=O)N2CCN(C(=O)c3sccc3C)CC2)cc1	14.5 µM	14.5	> 95 µM (inactive)	> 95	> 95
COc1ccc2c(c1OC)CN1CCc3cc4c(cc3[C@@H]1[C@@H]2O)OCO4	> 100 µM (inactive)	> 100	> 95 µM (inactive)	> 95	> 95
C/C(=N\N=c1/sc2ccccc2n1C)c1ccccn1	> 100 µM (inactive)	> 100	> 95 µM (inactive)	> 95	> 95
NNc1ncnc2c1cnn2-c1ccccc1	> 100 µM (inactive)	> 100	> 95 µM (inactive)	> 95	> 95
O=C(NCCN1CCN(C(=O)c2cccc(OC(F)F)c2)CC1)c1cccc(OC(F)F)c1	> 100 µM (inactive)	> 100	> 95 µM (inactive)	> 95	> 95
Cc1cccc(C)c1Nc1nnc(SCC(=O)Nc2cc(S(=O)(=O)N3CCCCC3)ccc2Cl)s1	> 100 µM (inactive)	> 100	> 95 µM (inactive)	> 95	> 95
C=CCC1(CC=C)CCCN1C(=O)c1cc(COc2cccc(OC)c2)on1	> 100 µM (inactive)	> 100	> 95 µM (inactive)	> 95	> 95
CC(C(=O)N1CCN(c2ccc(Cl)cc2)CC1)c1ncc(C(F)(F)F)cc1Cl (stereo not given)	> 100 µM (inactive)	> 100	> 95 µM (inactive)	> 95	> 95
Cc1c(NP(=O)(C(C)(C)C)C(C)(C)C)c(=O)n(-c2ccccc2)n1C	> 100 µM (inactive)	> 100	> 95 µM (inactive)	> 95	> 95
O=C(O)CSc1nnc(-c2ccc(Cl)cc2Cl)n1-c1ccc(Cl)cc1	inactive	39.9	inactive	> 95	34.4
CC1(C)c2ccccc2C(=O)c2ccccc21	> 100 µM (inactive)	> 100	> 95 µM (inactive)	> 95	> 95
O=S1(=O)CCOC[C@H](Cc2ccccc2)N1Cc1ccccc1F	> 100 µM (inactive)	> 100	> 95 µM (inactive)	> 95	> 95
O=C(COc1ccc(S(=O)(=O)N2CCCC2)cc1)Nc1ccc2c(c1)OCCO2	> 100 µM (inactive)	> 100	> 95 µM (inactive)	> 95	> 95
NCCCC[C@H]1CN=C(N)N1CCC12CC3CC(CC(C3)C1)C2	inactive	50.2	> 95 µM (inactive)	> 95	> 95
COc1ccncc1-c1csc(C(O)c2ccccc2)n1 (stereo not given)	> 100 µM (inactive)	> 100	> 95 µM (inactive)	> 95	> 95
CC(=O)N1CCSc2ccc(S(=O)(=O)Nc3ccc(C)cc3)cc21	> 100 µM (inactive)	> 100	> 95 µM (inactive)	> 95	> 95
C=C1C[C@@]23CCC4[C@@](C)(CCC[C@@]4(C)C(=O)O)C2CC[C@]1(O)C3 (stereo not given in full)	> 100 µM (inactive)	> 100	> 95 µM (inactive)	> 95	> 95
COc1ccc(NC(=O)CN2CCN(c3c(C)cc(C)cc3C)CC2)cc1	> 100 µM (inactive)	> 100	> 95 µM (inactive)	> 95	> 95
Cc1ccccc1/C=C/c1nc2ccccc2c(=O)n1CCc1ccccc1	> 100 µM (inactive)	> 100	> 95 µM (inactive)	> 95	> 95
CCCn1c(C)cc(C(=O)CSc2nc3nc(C)cc(C)n3n2)c1C	> 100 µM (inactive)	> 100	> 95 µM (inactive)	> 95	> 95
